Laboratory results published in ChEMBL document CHEMBL6071183, “Neuroprotective Effect of 2-(Benzyloxy)arylureas Is Not Related to CypD Inhibition nor Suppression of mPTP Opening” (ACS Med Chem Lett, 2024).
In brackets after ≈: the same amount, converted by molar mass.

What was measured:
[1] = molecular target: Peptidyl-prolyl cis-trans isomerase A (Homo sapiens, UniProt P62937)
Chain of Peptidyl-prolyl cis-trans isomerase A (P62937 whole entry): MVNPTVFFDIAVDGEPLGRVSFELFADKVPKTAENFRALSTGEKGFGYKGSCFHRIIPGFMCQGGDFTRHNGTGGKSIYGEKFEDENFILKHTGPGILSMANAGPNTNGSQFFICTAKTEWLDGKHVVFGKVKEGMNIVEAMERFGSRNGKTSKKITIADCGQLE

## O=C(Nc1ccc([N+](=O)[O-])cc1)Nc1ncccc1OCc1ccccc1
physchem
  solubility: 20 µM (≈ 7.29 µg/mL)
[1]
  IC50: 10 µM
